Data on 3 molecules can be found in PMC10788856, “Mimicking Nonribosomal Peptides from the Marine Actinomycete Streptomyces sp. H-KF8 Leads to Antimicrobial Peptides” (ACS Infectious Diseases, 2023).

On the set-up of data set [1]: method as in PMID 20518462. The conditions noted are these: nitrotyrosine side chain; cited from earlier work.
The next data set deals with E. coli CCUG31246. Type of data set: cell-based. The conditions noted are these: CCUG31246, 16 h. The method, then:
MICs were performed under the same growth conditions used for mode of action analysis following the guidelines issued by the Clinical Laboratory Standardization Institute (CLSI) with slight modifications. Serial two-fold dilutions of the peptides were prepared in 1:10 BHI in a sterile 96-well plate and subsequently inoculated with 5 × 10^5 CFU/mL of E. coli CCUG31246. […] The following MICs were obtained: C3: 512 μg/mL, L3: 64 μg/mL, and L3-K: 128 μg/mL. These concentrations were used for all mechanistic experiments. Polymyxin B was used as a positive control in all assays at a final concentration of 10 μg/mL.

In data set [2] the test system is hepatoblastoma (HepG2) cells. The class given is cell-based, human. Here is the method:
(§1) To confirm the peptide selectivity toward bacteria cells, cytotoxicity assays of synthesized peptides L2, L3, L3-K, and C3 against human embryonic kidney (HEK) and hepatoblastoma (HepG2) were performed (Figure 4). The cell viability was assessed using resazurin 24 h post peptide exposure. The line at 70% cell viability marks out the threshold for cytotoxic potential compared to the negative control.
(§2) Figure 4 Cell viability assessment using the resazurin assay 24 h post peptide exposure: (a) HepG2 and (b) HEK cells were treated with various concentrations of the peptides C3, L3, L3-K, and L2. Triton-X was used as a positive control. Cells cultured in pure cell media were used as negative controls and were considered to have 100% cell viability. The line represents the threshold for cytotoxicity level of 70% of cell viability compared to the negative control. Data are presented as the mean ± SD of three biological replicates of the HepG2 cells and the mean ± SD of two biological replicates of the HEK cells.
(§3) Cytotoxicity against human embryonic kidney (HEK) and hepatoblastoma (HepG2) cell lines was assessed. Cells were grown to an initial seeding density of 10 000 cells per well. Metabolic activity was determined in a resazurin-based assay. HEK and HepG2 cells were exposed to four different concentrations of the peptides for 24 h. Treatment with Triton X-100 at 1% v/v was used as a positive control. Following this exposure period, the cells were treated with resazurin at a final concentration of 0.015 mg/mL for 3 h. The metabolic activity was then determined in an resazurin-based assay. The fluorescence intensities were quantified in a Hidex Sense microplate reader using an excitation wavelength of 544 nm and an emission wavelength of 590 nm.

The conditions of data set [3]: 37 °C, RP-HPLC; for stability in human serum: human serum from male AB plasma, 250 μL serum + 100 μL aqueous peptide solution (L2 1 mM; L3 0.9 mM; L3-K 0.7 mM; C3 0.5 mM), 0, 0.5, 1, 4, 24 h, Fmoc-Gly internal standard; for additional peaks / shoulder in chromatogram after 24 h in serum, total volume percentage: human serum, detection at 254 nm. The method, then:
Peptide stability in serum is another limiting factor for AMPs as novel antibiotics.[30]
Peptide serum stability was performed according to D́Aloisio et al.[30] and Chen et al.[51] with some minor modifications. The serum stability was investigated using human serum (Sigma-Aldrich) from Human male AB plasma, USA origin, sterile-filtered. 250 μL serum was temperature-equilibrated at 37 °C and 100 μL aqueous peptide solution (L2: 1 mM; L3: 0.9 mM; L3-K: 0.7 mM; and C3: 0.5 mM) was added. RP-HPLC was measured at time intervals of 0, 0.5, 1, 4, and 24 h. For RP-HPLC samples, 30 μL of peptide solution was taken, 7 μL of Fmoc-Gly solution (4 mM) was added, and 2 μL of the sample was injected to HPLC. […]
Figure S 133. RP-HPLC chromatogram (gradient from 10 to 90% acetonitrile in water over 10 min at 2
ml/min, detection at 254 nm) of peptides tested for serum stability. A) peptide L2 B) peptide L3. C)
(1 picture or pasted object on this page, not shown here)

The next data set deals with C. albicans. Nature of the data set: microbe, parasite or virus in culture. The conditions noted are these: 16 h. Type of data set: cell-based.
Data set [4] deals with human embryonic kidney (HEK) cells. Type of data set: cell-based. The method, then:
as §1, §2, §3

A further data set deals with S. aureus. Nature of the data set: microbe, parasite or virus in culture. Type of data set: cell-based. Particulars: 16 h.

Structures are written as SMILES. Square brackets hold non-standard residues; d marks the D form. Peptide text beside a SMILES is read from it. Tyr(3-NO2) = N[C@@H](Cc1ccc(O)c([N+](=O)[O-])c1)C(=O)O; Orn = NCCC[C@H](N)C(=O)O

For `N[C@@H](Cc1ccc(O)c([N+](=O)[O-])c1)C(=O)O` [Y-NO2], the pKa value in data set [1] is 7.1.
As for `CC(C)[C@@H](NC(=O)[C@H](CCCN)NC(=O)[C@@H](NC(=O)[C@H](CCCN)NC(=O)[C@H](Cc1c[nH]c2ccccc12)NC(=O)[C@@H](C)NC(=O)[C@H](NC(=O)[C@@H](C)N)C(C)C)[C@@H](C)O)C(=O)N[C@@H](CCCCN)C(N)=O` [L2] (H-[dA][dV][dA]W[Orn]T[Orn][dV]K-NH2), in the data set with E. coli CCUG31246, the “E. coli MIC” value is over 512 µg/mL. Besides, the “cytotoxicity, cell viability HepG2” value in data set [2] is given as “no cytotoxicity at any tested concentration”. Also, in data set [3], the “stability in human serum” value was “stable after 24 h” and the “additional peaks / shoulder in chromatogram after 24 h in serum, total volume percentage” value is given as 0.4%. In the data set on C. albicans, the “C. albicans MIC” value was over 512 µg/mL. For the same molecule, in data set [4], the “cytotoxicity, cell viability HEK” value was “no cytotoxicity at any tested concentration”. The “S. aureus MIC” value in the data set on S. aureus was over 512 µg/mL.
With `CC(C)[C@@H](NC(=O)[C@H](CCCN)NC(=O)[C@@H](NC(=O)[C@H](CCCN)NC(=O)[C@H](Cc1c[nH]c2ccccc12)NC(=O)[C@@H](C)NC(=O)[C@H](NC(=O)[C@@H](C)NC(=O)[C@@H](N)Cc1c[nH]c2ccccc12)C(C)C)[C@@H](C)O)C(=O)N[C@@H](Cc1ccc(O)c([N+](=O)[O-])c1)C(N)=O` [L3-K] (H-W[dA][dV][dA]W[Orn]T[Orn][dV][Tyr(3-NO2)]-NH2), in data set [2], the “cytotoxicity, cell viability HepG2” value was “no cytotoxicity at any tested concentration”. Further, in data set [3], the “stability in human serum” value is “stable after 24 h” and the “additional peaks / shoulder in chromatogram after 24 h in serum, total volume percentage” value is 1.3%. Moreover, the “C. albicans MIC” value in the data set on C. albicans was 248 µg/mL. In data set [4], the “cytotoxicity, cell viability HEK” value is recorded as “no cytotoxicity at any tested concentration”. In the data set on S. aureus, the “S. aureus MIC” value turned out to be 418.7 µg/mL.
